Reference: PMC5473336 (Journal of medicinal chemistry, 2016)
“Also recorded” adds a separate entry of the source.

Legend:
RAD51 [1] = target: T1, RAD51 (Homo sapiens, UniProt Q06609); assay: Fluorescence polarization-based RAD51-DNA binding assay; details: for ssDNA binding IC50: Stim: compound is a stimulator
T1 sequence (Q06609 1-339): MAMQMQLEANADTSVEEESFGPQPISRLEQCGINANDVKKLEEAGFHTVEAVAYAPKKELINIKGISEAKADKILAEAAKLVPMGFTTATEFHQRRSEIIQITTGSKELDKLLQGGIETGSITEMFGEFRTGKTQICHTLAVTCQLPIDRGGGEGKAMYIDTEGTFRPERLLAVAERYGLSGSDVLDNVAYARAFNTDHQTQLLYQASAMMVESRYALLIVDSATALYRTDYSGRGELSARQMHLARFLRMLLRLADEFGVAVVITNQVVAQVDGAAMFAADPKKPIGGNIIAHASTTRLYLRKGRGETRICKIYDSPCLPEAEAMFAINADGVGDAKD

RAD51 [2] = target: T1, RAD51; assay: Gel-based D-loop assay; format: biochemical

ssDNA binding IC50 (RAD51 [1])	influence on RAD51-ssDNA binding (in words) (RAD51 [1])	D-loop inhibitory activity (in words) (RAD51 [2])	SMILES
–	–	moderate	c1cncc(-c2nc3ccccc3n3cccc23)c1 [Compound 11a, 4-(Pyridin-3-yl)pyrrolo[1,2-a]quinoxaline]
–	–	moderate	c1ccc2c(c1)nc(-c1ccncc1)c1cccn12 [Compound 11b, 4-(Pyridin-4-yl)pyrrolo[1,2-a]quinoxaline]
Stim	stimulators	–	COc1ccc2c(c1)nc(-c1ccc([N+](=O)[O-])cc1)c1cccn12 [Compound 12b, 7-Methoxy-4-(4-nitrophenyl)pyrrolo[1,2-a]quinoxaline]
–	only weakly influenced	–	COc1ccc2c(c1)nc(-c1ccc(N)cc1)c1cccn12 [Compound 12c, 4-(7-Methoxypyrrolo[1,2-a]quinoxalin-4-yl)aniline]
–	–	slight improvement	COc1ccc2c(c1)nc(-c1cccnc1)c1cccn12 [Compound 13a, 7-Methoxy-4-(pyridin-3-yl)pyrrolo[1,2-a]quinoxaline]
–	–	slight improvement	Oc1ccc2c(c1)nc(-c1cccnc1)c1cccn12 [Compound 13b, 4-(Pyridin-3-yl)pyrrolo[1,2-a]quinoxalin-7-ol]
Stim	stimulators	–	CCCOc1ccc2c(c1)nc(-c1ccc(N)cc1)c1cccn12 [Compound 15a, 4-(7-Propoxypyrrolo[1,2-a]quinoxalin-4-yl)aniline]

The remaining lines, values behind:

SMILES	ssDNA binding IC50 (RAD51 [1])	influence on RAD51-ssDNA binding (in words) (RAD51 [1])	D-loop inhibitory activity (in words) (RAD51 [2])
COc1ccc2c(c1)nc(-c1ccc(N(C)C)cc1)c1cccn12 [Compound 8, 4-(7-Methoxypyrrolo[1,2-a]quinoxalin-4-yl)-N,N-dimethylaniline]	Stim	–	–
CN(C)c1ccc(-c2nc3ccccc3n3cccc23)cc1 [Compound 9a, N,N-Dimethyl-4-(pyrrolo[1,2-a]quinoxalin-4-yl)aniline]	Stim	modest influence	allow for D-loop inhibition
O=[N+]([O-])c1cccc(-c2nc3ccccc3n3cccc23)c1 [Compound 9b, 4-(3-Nitrophenyl)pyrrolo[1,2-a]quinoxaline]	–	modest influence	–
Nc1cccc(-c2nc3ccccc3n3cccc23)c1 [Compound 9c, 3-(Pyrrolo[1,2-a]quinoxalin-4-yl)aniline]	–	–	decreased
Oc1ccc(-c2nc3ccccc3n3cccc23)cc1 [Compound 9d, 4-(Pyrrolo[1,2-a]quinoxalin-4-yl)phenol]	–	–	significantly decreased
O=[N+]([O-])c1ccc(-c2nc3ccccc3n3cccc23)cc1 [Compound 9f, 4-(4-Nitrophenyl)pyrrolo[1,2-a]quinoxaline]	–	–	significantly decreased
Nc1ccc(-c2nc3ccccc3n3cccc23)cc1 [Compound 9g, 4-(Pyrrolo[1,2-a]quinoxalin-4-yl)aniline]	–	–	allow for D-loop inhibition
c1ccc2c(c1)nc(-c1ccc(N3CCOCC3)cc1)c1cccn12 [Compound 9j, 4-(4-(Pyrrolo[1,2-a]quinoxalin-4-yl)phenyl)morpholine]	–	–	allow for D-loop inhibition
COc1ccc2c(c1)nc(-c1ccc(O)cc1)c1cccn12 [Compound 12a, 4-(7-Methoxypyrrolo[1,2-a]quinoxalin-4-yl)phenol]	–	relatively strong ssDNA binding inhibition	–
Nc1ccc(-c2nc3cc(OCCF)ccc3n3cccc23)cc1 [Compound 15b, 4-(7-(2-Fluoroethoxy)pyrrolo[1,2-a]quinoxalin-4-yl)aniline]	Stim	stimulators; also recorded: modest effects	–
CN(C)c1ccc(-c2nc3cc(OC(C)(C)C(N)=O)ccc3n3cccc23)cc1 [Compound 16, 2-((4-(4-(Dimethylamino)phenyl)pyrrolo[1,2-a]quinoxalin-7-yl)-oxy)-2-methylpropanamide]	Stim	stimulators	–
